Data published in patent US6908884B2, “Benzazolonylcarbonylcyclohexenones and their use as herbicides” (BASF Aktiengesellschaft, priority 2000, dated 2005).

Legend:
AMARE = experiment: greenhouse post-emergence herbicidal test; assay type: in vivo, redroot pigweed; conditions: 125 or 250 g/ha (a.s.)
Text: (§1) The seeds of the test plants were sown separately for each species. For the post-emergence treatment, the test plants were first grown to a plant height of from 3 to 15 cm, depending on the plant habit, and only then treated with the active compounds which had been suspended or emulsified in water. To this end, the test plants were either sown directly and grown in the same containers, or they were first grown separately as seedlings and transplanted into the test containers a few days prior to treatment. The rate of application for the post-emergence treatment was 250, 125, 62.5, 31.3 and/or 15.6 g/ha of active substance (a.s.). Depending on the species, the plants were kept at from 10 to 25° C., or 20-35° C., respectively. The test period extended over 2 to 4 weeks. During this time, the plants were tended, and their response to the individual treatments was evaluated. Evaluation was carried out using a scale of from 0 to 100. 100 means no emergence of the plants, or complete destruction of at least the aerial parts, and 0 means no damage, or normal course of growth. A damage of at least 95% corresponds to very good herbicidal action. The plants used in the greenhouse experiments were of the following species: [table]

LAMAM = experiment: greenhouse post-emergence herbicidal test; assay type: in vivo, henbit; conditions: 125 or 62.5 g/ha (a.s.)
Text: as §1

MATIN = experiment: greenhouse post-emergence herbicidal test; assay type: in vivo, chamomile, false; conditions: 125 or 62.5 g/ha (a.s.)
Text: as §1

SINAL = experiment: greenhouse post-emergence herbicidal test; assay type: in vivo, white mustard; conditions: 125 or 62.5 g/ha (a.s.)
Text: as §1

ABUTH = experiment: greenhouse post-emergence herbicidal test; assay type: in vivo, velvet leaf; conditions: 125 or 250 g/ha (a.s.)
Text: as §1

PHBPU = experiment: greenhouse post-emergence herbicidal test; assay type: in vivo, morning glory, common
Text: as §1, with “The rate of application for the post-emergence treatment was 250, 125, 62.5, 31.3 and/or 15.6 g/ha of active substance (a.s.).” left out

SETFA = experiment: greenhouse post-emergence herbicidal test; assay type: in vivo, giant foxtail; conditions: 125 or 250 g/ha (a.s.)
Text: as §1

CHEAL = experiment: greenhouse post-emergence herbicidal test; assay type: in vivo, lambs' quarters (goose-foot)
Text: as §1, with “The rate of application for the post-emergence treatment was 250, 125, 62.5, 31.3 and/or 15.6 g/ha of active substance (a.s.).” left out

ECHCG = experiment: greenhouse post-emergence herbicidal test; assay type: in vivo, barnyard grass
Text: as §1, with “The rate of application for the post-emergence treatment was 250, 125, 62.5, 31.3 and/or 15.6 g/ha of active substance (a.s.).” left out

POLPE = experiment: greenhouse post-emergence herbicidal test; assay type: in vivo, lady's thumb; conditions: 31.3 g/ha (a.s.), read-out: herbicidal action against POLPE
Text: as §1

BRAPL = experiment: greenhouse post-emergence herbicidal test; assay type: in vivo, marmalade grass; conditions: 125 or 250 g/ha (a.s.)
Text: as §1

## CCCCn1c(=O)oc2ccc(C(=O)C3=C(O)CCCC3=O)c(C)c21 [Compound I-1a.6]
AMARE
  herbicidal action against AMARE: very good herbicidal action (A damage of at least 95% corresponds to very good herbicidal action)

## C=CCn1c(=O)oc2ccc(C(=O)C3=C(O)CCCC3=O)c(C)c21 [Compound I-1a.29]
AMARE
  herbicidal action against AMARE: very good herbicidal action (A damage of at least 95% corresponds to very good herbicidal action)

## Cc1c(C(=O)C2=C(O)CCCC2=O)ccc2sc(=O)n(C)c12 [Compound I-1a.1129, 3,4-dimethyl-5-(1′,3′-cyclohexanedion-2′-yl)carbonylbenzothiazol-2-one]
LAMAM
  herbicidal action against LAMAM: very good herbicidal action (A damage of at least 95% corresponds to very good herbicidal action)
MATIN
  herbicidal action against MATIN: very good herbicidal action (A damage of at least 95% corresponds to very good herbicidal action)
SINAL
  herbicidal action against SINAL: very good herbicidal action (A damage of at least 95% corresponds to very good herbicidal action)

## CCn1c(=O)sc2ccc(C(=O)C3=C(O)CCCC3=O)c(C)c21 [Compound I-1a.1131]
ABUTH
  herbicidal action against ABUTH: very good herbicidal action (A damage of at least 95% corresponds to very good herbicidal action)

## Cc1c(C(=O)C2=C(O)CC(C)(C)CC2=O)ccc2sc(=O)n(C)c12 [Compound I-1c.1129, 3,4-dimethyl-5-(5′,5′-dimethyl-1′,3′-cyclohexanedion-2′-yl)-carbonylbenzothiazol-2-one]
PHBPU; 125 or 62.5 g/ha (a.s.)
  herbicidal action against PHBPU: very good herbicidal action (A damage of at least 95% corresponds to very good herbicidal action)

## CCn1c(=O)sc2ccc(C(=O)C3=C(O)CC(C)(C)CC3=O)c(C)c21 [Compound I-1c.1131]
SETFA
  herbicidal action against SETFA: very good herbicidal action (A damage of at least 95% corresponds to very good herbicidal action)

## Cc1c(C(=O)C2=C(O)C(C)(C)C(=O)C(C)(C)C2=O)ccc2sc(=O)n(C)c12 [Compound I-1d.1129, 3,4-dimethyl-5-(4′,4′,6′,6′-tetramethyl-1′,3′,5′-cyclohexane-trion-2′-yl)-carbonylbenzothiazol-2-one]
CHEAL; 16.5 g/ha of a.s.
  herbicidal action against CHEAL: good to very good herbicidal action
CHEAL; Chenopodium album, 31.3 g/ha (a.s.), read-out: herbicidal action against CHEAL
  pest or weed control at 31.3 g/ha: ≥ 95%
ECHCG; 16.5 g/ha of a.s.
  herbicidal action against ECHCG: good to very good herbicidal action
ECHCG; 31.3 g/ha (a.s.)
  herbicidal action against ECHCG: good to very good herbicidal action
PHBPU; 16.5 g/ha of a.s.
  herbicidal action against PHBPU: very good herbicidal action (A damage of at least 95% corresponds to very good herbicidal action)
PHBPU; 31.3 g/ha (a.s.)
  herbicidal action against PHBPU: very good herbicidal action (A damage of at least 95% corresponds to very good herbicidal action)
POLPE
  pest or weed control at 31.3 g/ha: ≥ 95%

## CCn1c(=O)sc2ccc(C(=O)C3=C(O)C(C)(C)C(=O)C(C)(C)C3=O)c(C)c21 [Compound I-1d.1131]
ABUTH
  herbicidal action against ABUTH: very good herbicidal action (A damage of at least 95% corresponds to very good herbicidal action)
AMARE
  herbicidal action against AMARE: very good herbicidal action (A damage of at least 95% corresponds to very good herbicidal action)
SETFA
  herbicidal action against SETFA: very good herbicidal action (A damage of at least 95% corresponds to very good herbicidal action)

## CCCCn1c(=O)sc2ccc(C(=O)C3=C(O)C(C)(C)C(=O)C(C)(C)C3=O)c(C)c21 [Compound I-1d.1134]
ABUTH
  herbicidal action against ABUTH: very good herbicidal action (A damage of at least 95% corresponds to very good herbicidal action)
AMARE
  herbicidal action against AMARE: very good herbicidal action (A damage of at least 95% corresponds to very good herbicidal action)

## CCn1c(=O)sc2ccc(C(=O)C3=C(O)C4CCC(C4)C3=O)c(C)c21 (centres unmarked) [Compound I-1x.1131]
BRAPL
  herbicidal action against BRAPL: very good herbicidal action (A damage of at least 95% corresponds to very good herbicidal action)
SETFA
  herbicidal action against SETFA: very good herbicidal action (A damage of at least 95% corresponds to very good herbicidal action)

## CCCCn1c(=O)sc2ccc(C(=O)C3=C(O)C4CCC(C4)C3=O)c(C)c21 (centres unmarked) [Compound I-1x.1134]
ABUTH
  herbicidal action against ABUTH: very good herbicidal action (A damage of at least 95% corresponds to very good herbicidal action)
SETFA
  herbicidal action against SETFA: very good herbicidal action (A damage of at least 95% corresponds to very good herbicidal action)

## Cc1c(C(=O)C2=C(O)C3CCC(C3)C2=O)ccc2sc(=O)n(C)c12 (centres unmarked) [Example 4]
other
  melting point: 101 to 110 °C

## C=CCn1c(=O)sc2ccc(C(=O)C3=C(O)CC(C)(C)CC3=O)c(C)c21 [Example 5]
other
  melting point: 143 to 150 °C

## Cc1c(C(=O)C2=C(O)CCCC2=O)ccc2oc(=O)n(C)c12 [Example 6]
other
  melting point: 207 to 209 °C

## Cc1c(C(=O)C2=C(O)CC(C)(C)CC2=O)ccc2oc(=O)n(C)c12 [Example 7]
other
  melting point: 139 to 143 °C

## CCCCn1c(=O)oc2ccc(C(=O)C3=C(O)CC(C)(C)CC3=O)c(C)c21 [Example 10]
other
  melting point: 115 to 116 °C

## CCn1c(=O)sc2ccc(C(=O)C3=C(n4cccn4)CC(C)(C)CC3=O)c(C)c21 [Example 21]
other
  melting point: 150 to 151 °C

## CCCn1c(=O)sc2ccc(C(=O)C3=C(O)CC(C)(C)CC3=O)c(C)c21 [Example 25]
other
  melting point: 129 to 135 °C

## CCCn1c(=O)oc2ccc(C(=O)C3=C(O)CC(C)(C)CC3=O)c(C)c21 [Example 29]
other
  melting point: 189 to 193 °C

## Cc1c(C(=O)C2=C(O)CC(C)(C)CC2=O)ccc2sc(=O)n(Cc3ccccc3)c12 [Example 32]
other
  melting point: 161 to 166 °C

## CC#CCn1c(=O)sc2ccc(C(=O)C3=C(O)CC(C)(C)CC3=O)c(C)c21 [Example 33]
other
  melting point: 147 to 149 °C

## C=CCCn1c(=O)sc2ccc(C(=O)C3=C(O)C4CCC(C4)C3=O)c(C)c21 (centres unmarked) [Example 40]
other
  melting point: 129 to 132 °C
